Results as given in paper PMC4871132 (Journal of chemical information and modeling, 2016).
Square brackets hold non-standard residues; d marks the D form. Peptide text beside a SMILES is read from it. * marks the point of attachment. ξ: configuration not given here. Cbz = O=C(OCc1ccccc1)*; ξM = CSCCC(N)C(=O)O

Columns and labels:
[1] = test system: P. falciparum NF54 strain (PfNF54); test: in vitro antiplasmodial assay, parasite lactate dehydrogenase assay; format: cell-based; settings: Plasmodium falciparum, NF54, read-out: PfNF54 IC50
[2] = test system: P. falciparum NF54 strain (PfNF54); test: in vitro antiplasmodial assay, [3H] hypoxanthine incorporation assay; format: cell-based; settings: Plasmodium falciparum, NF54, read-out: PfNF54 IC50
[3] = target: PfDHODH (Plasmodium falciparum, UniProt Q08210); test: colorimetric DCIP PfDHODH enzyme inhibition assay; format: biochemical; settings: for % PfDHODH Inhibition at 10 μM: 10 μM compound; for IC50: read-out: PfDHODH IC50
PfDHODH, sequence (Q08210 24-569): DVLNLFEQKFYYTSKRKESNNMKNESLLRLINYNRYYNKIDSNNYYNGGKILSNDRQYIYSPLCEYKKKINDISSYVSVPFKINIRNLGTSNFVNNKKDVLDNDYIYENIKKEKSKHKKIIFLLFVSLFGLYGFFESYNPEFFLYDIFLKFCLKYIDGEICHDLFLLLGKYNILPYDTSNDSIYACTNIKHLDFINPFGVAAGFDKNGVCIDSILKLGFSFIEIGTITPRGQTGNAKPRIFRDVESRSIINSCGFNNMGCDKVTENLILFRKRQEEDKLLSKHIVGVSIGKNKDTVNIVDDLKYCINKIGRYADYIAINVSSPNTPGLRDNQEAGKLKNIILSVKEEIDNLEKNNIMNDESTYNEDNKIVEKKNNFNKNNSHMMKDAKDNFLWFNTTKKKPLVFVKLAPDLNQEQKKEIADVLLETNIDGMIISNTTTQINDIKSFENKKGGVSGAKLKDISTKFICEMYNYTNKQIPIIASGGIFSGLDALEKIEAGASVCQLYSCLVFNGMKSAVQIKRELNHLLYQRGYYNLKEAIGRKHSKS

[4] = target: hDHODH (Homo sapiens, UniProt Q02127); test: colorimetric DCIP human DHODH enzyme inhibition assay; format: biochemical
hDHODH, sequence (Q02127 whole entry): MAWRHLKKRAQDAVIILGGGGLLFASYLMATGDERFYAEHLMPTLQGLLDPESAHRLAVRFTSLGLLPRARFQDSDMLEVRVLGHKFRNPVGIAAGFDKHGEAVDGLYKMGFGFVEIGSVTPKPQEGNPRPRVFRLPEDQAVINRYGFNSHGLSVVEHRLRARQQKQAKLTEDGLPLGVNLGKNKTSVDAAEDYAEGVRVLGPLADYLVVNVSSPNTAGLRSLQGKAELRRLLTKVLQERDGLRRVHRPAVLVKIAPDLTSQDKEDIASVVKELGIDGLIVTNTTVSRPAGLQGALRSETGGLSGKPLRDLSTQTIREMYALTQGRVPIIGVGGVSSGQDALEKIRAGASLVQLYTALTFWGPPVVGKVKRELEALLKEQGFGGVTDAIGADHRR

Row | SMILES | % PfDHODH Inhibition at 10 μM [3] [%] | IC50 [3] [µM] | also measured
1 | C[C@H]1[C@H](OC(=O)CCC(=O)O)O[C@@H]2O[C@@]3(C)CC[C@H]4[C@H](C)CC[C@@H]1[C@@]24OO3 [Artesunate] |  |  | IC50 [1]: 10 nM; IC50 [2]: 9 nM
2 | CCN(CC)CCCC(C)Nc1ccnc2cc(Cl)ccc12 (stereo not shown) [Chloroquine] |  |  | IC50 [1]: 13 nM; IC50 [2]: 12 nM
3 | C=CCN(CC(O)CO)c1ccccc1 (stereo not shown) [NSC58504] | 26 |  | 
4 | COC(=O)C(CC(=O)c1ccc2ccccc2c1)OC (stereo not shown) [NSC72405] | 30 | > 100 | 
5 | CCOC(=O)C(Cc1c[nH]c2ccc([N+](=O)[O-])cc12)C(=O)OCC [NSC85231] | 28 |  | 
6 | CCOC(=O)CSC(=S)Nc1ccc(Cl)cc1 [NSC85749] | 46 | > 100 | PfDHODH inhibition, result in words [3]: moderately active at concentrations above 30 μM
7 | CSCCC(NC(=O)COc1ccc(Cl)cc1Cl)C(=O)O (stereo not shown) [NSC87887] | 28 |  | 
8 | CSCCC(NC(=O)OCc1ccccc1)C(=O)NCC(=O)O (stereo not shown) [NSC89636] (Cbz-[ξM]-Gly-OH) | 26 |  | 
9 | CCOC(=O)C(=CNc1cc(Cl)ccc1Cl)C(=O)OCC [NSC137121] | 0 |  | 
10 | CCOC(=O)c1cnc(SC)nc1Nc1ccc(Cl)cc1 [NSC165287] | 11 |  | 
11 | CCOC(=O)C(=CNc1ccc2c(c1)OCO2)C(=O)OCC [NSC332161] |  | 5.1 | % PfDHODH Inhibition at 10 μM ([3]; 10 µM): 63%
12 | CCOC(=O)C(=CNc1cccc(N(C)C)c1)C(=O)OCC [NSC336047] | 93 | 0.38 | species-selectivity for PfDHODH over hDHODH ([4]; from PfDHODH and hDHODH IC50): highly species selective; IC50 ([4]; read-out: hDHODH IC50): > 100 µM
13 | CCOC(=O)C(=CNc1cccc2c(O)cccc12)C(=O)OCC [NSC340225] | 3 |  | 
14 | CCOC(=O)/C(C#N)=C/NCCc1c[nH]c2ccccc12 [NSC343533] | 50 | 20 | 
15 | O=NN(CCCl)C(=O)Nc1ccc2[nH]c3ccccc3c2c1 [NSC 116824] | 3 |  | 
